The values below come from PubChem BioAssay (NCI).

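Interpolation was linear, between the two tested concentrations surrounding the appropriate level; five concentrations were tested over 48 hours in 96-well plates. Here, GI50 denotes the concentration required for 50% inhibition of growth. TGI is the concentration that stops growth completely.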

Assay in all cases: inhibition of tumour cell growth, NCI panel, 48 h
For test [1], the system named is K-562 leukemia.
The test system of test [2] is NCI-H226 lung.
For test [3], the system named is OVCAR-3 ovarian.
The test system of test [4] is OVCAR-8 ovarian.
In test [5] the test system is SF-268 CNS.
The test system of test [6] is SK-MEL-2 melanoma.
Test [7] concerns SN12C renal.
The subject of test [8] is UO-31 renal.
The subject of test [9] is MDA-MB-231 breast.

Take `O=C1CCC(=O)N2CCCCN12`: the TGI in test [1], in test [2], in [3], in test [4], in [5] and in test [6] was above 100 µM in each case. Besides, the TGI in test [7] and in [8] was above 100 µM each time.

Regarding `O=C(O)CNS(=O)(=O)c1ccc(NCc2ccccc2)cc1`, the TGI in test [1], in test [2], in test [4], in [5], in [6] and in test [7] was above 100 µM each time. In addition, the TGI in [8] is above 100 µM.

On to `COc1ccc(/C=C/CN(C)CCc2ccccc2)cc1OC`, for which the TGI in test [1], in test [2], in test [3], in test [4], in test [5] and in test [6] was above 100 µM in each case. In addition, the TGI in test [7] and in test [8] was above 100 µM each time.

For `N#Cc1ccc(NC(=O)Nc2ccc(Oc3ccc(NC(=O)Nc4ccc(C#N)cc4)cc3)cc2)cc1`, the GI50 in test [1] was 2110 nM; in test [9], 12.4 µM; in test [2], 23.1 µM; in [3] it was 19400 nM; in test [4], 14.4 µM; in [5] it was 10.8 µM. In addition, the GI50 is 22.4 µM in [6], 25.3 µM in test [7] and 22.2 µM in test [8]. Further, the TGI in test [1], in test [9], in test [2], in test [3], in [4] and in [5] was above 100 µM throughout. Besides, the TGI was 88.9 µM in test [6], above 100 µM in [7] and above 100 µM in test [8].

In the case of `C/C(CC(=O)Nc1cc(Cl)c(Cl)cc1Cl)=N\NC(N)=O`, the TGI in test [1], in test [2], in [3], in test [4], in test [5] and in [6] was above 100 µM throughout. The same molecule displayed a TGI in test [8] above 100 µM.

`COc1ccc(NC2=CC(=O)C(=O)c3ccccc32)nn1`: the TGI was 1.31 µM in test [1]; 34.8 µM in test [9]; 5.5 µM in [2]; 5.94 µM in test [3]; 5.35 µM in test [4]; 6.95 µM in test [5]. For the same molecule, the TGI in [6] amounted to 4.32 µM; in test [7], 3.52 µM; in test [8], 11.8 µM.

`C[C@]12CC[C@H]3[C@@H](CC=C4C[C@@H](O)CC[C@@]43C)[C@@H]1CC[C@@H]2N(CCO)CCO`: the TGI in test [1], in test [9], in [2], in [3], in test [4] and in test [5] was above 100 µM each time. Moreover, the TGI in test [6], in test [7] and in test [8] was above 100 µM each time.

For the molecule `COc1ccc(/C(COc2c(-c3ccccc3)oc3ccccc3c2=O)=N\O)cc1`, the GI50 in [1] was 18900 nM; in [9], 18.3 µM; in test [2], 20.8 µM; in test [4], 47.6 µM; in test [5], 13.4 µM; in test [6], 9.82 µM. Besides, the figures for the GI50 in test [7] and in [8] were 10.6 µM and 41.4 µM, respectively. For the same molecule, the TGI in test [1] was above 50 µM; in test [9], above 50 µM; in test [2] it was above 50 µM; in [4] it was above 50 µM; in test [5] it was 41 µM; in test [6], 45.5 µM. The TGI is 33.9 µM in [7] and above 50 µM in [8].

For the molecule `O=C(/N=N/C(=O)OCc1ccccc1)OCc1ccccc1`, the TGI in test [1], in [3], in test [4], in test [5], in [6] and in test [7] was above 100 µM each time. The molecule also had a TGI in test [8] above 100 µM.

As for `COc1ccc(/C=C/c2nccc3ccccc23)cc1OC`, the TGI in [1], in test [9], in test [2], in test [3], in test [4] and in test [5] was above 10 µM each time. Moreover, the TGI in [6] and in test [7] was above 10 µM each time.

Regarding `CC(C)(C)C1C=C(Sc2ccccc2)C(=O)O1` (configuration not stated), the TGI in test [1], in test [2], in test [3], in test [4], in test [5] and in [6] was above 100 µM each time. The figures for the TGI in [7] and in test [8] were above 100 µM and 92.1 µM, respectively.

Take `Nc1nc(Cl)c2ncn(Cc3ccc(C45CC6CC(CC(C6)C4)C5)c(O)c3)c2n1`: the GI50 in test [9] was 1.85 µM; in [2] it was 12 µM; in test [3] it was 2320 nM; in [4], 2.93 µM; in test [5], 5.34 µM; in [6] it was 16 µM. Further, the figures for the GI50 in test [7] and in [8] were 2.95 µM and 12.7 µM, respectively. Moreover, the TGI was determined as 11.4 µM in [9]; 42.9 µM in test [2]; 11.1 µM in test [3]; 14.1 µM in test [4]; 21.4 µM in test [5]; 48.3 µM in test [6]. Further, the TGI in test [7] is 13.4 µM; in [8] it was 28.1 µM.

As for `C=CCCCCCCCCC(=O)[O][Sn]([CH2]CCC)([CH2]CCC)[CH2]CCC`, the GI50 in test [1] was 181 nM; in test [9] it was 0.14 µM; in test [2], 0.17 µM; in test [3], 147 nM; in [5] it was 0.149 µM; in [6], 0.189 µM. Further, the GI50 in test [7] was 0.153 µM; in [8], 0.132 µM. Besides, the TGI in test [1] turned out to be 0.457 µM; in [9], 0.304 µM; in test [2] it was 0.325 µM; in test [3], 0.285 µM; in [5], 0.309 µM; in test [6] it was 0.377 µM. In addition, the figures for the TGI in [7] and in [8] were 0.331 µM and 0.276 µM, respectively.
